Measurements reported in ChEMBL document CHEMBL5055616, “Discovery of Acyl-sulfonamide Nav1.7 Inhibitors GDC-0276 and GDC-0310” (J Med Chem, 2021).
Values after ≈ are worked out from the molar mass of the structure shown.

What was measured:
[1] = biological target: Sodium channel protein type 5 subunit alpha (Homo sapiens, UniProt Q14524); experiment: Inhibition of human Nav1.5 expressed in HEK293 cells incubated for 1 hr in presence of veratridine and anthropleurin-C by sodium influx assay; format: cell-based
[2] = species: Homo sapiens; experiment: Selectivity index, ratio of IC50 for human Nav1.5 expressed in HEK293 cells to IC50 for human Nav1.7 expressed in HEK293 cells; format: cell-based
[3] = Lipophilicity, logD of the compound at pH 7.4 by shake flask assay based LC-MS/MS analysis; format: physicochemical; details: buffer
[4] = Metabolic stability in human hepatocytes assessed as intrinsic clearance at 1 uM measured upto 3 hrs by LC-MS/MS analysis; format: ADME, cell-based, Hepatocyte; details: read-out: CLH
[5] = Metabolic stability in human liver microsomes assessed as intrinsic clearance at 1 uM measured upto 60 mins in presence of NADPH by LC-MS/MS analysis; format: ADME, Microsome; details: read-out: CLH
[6] = Half life in cynomolgus monkey at 2 mg/kg, po or 1 mg/kg, iv measured upto 24 hrs by LC-MS/MS analysis; format: ADME, organism-based, Macaca fascicularis; details: in vivo
[7] = Volume of distribution at steady state in Beagle dog at 1 mg/kg, po or 0.5 mg/kg, iv measured upto 24 hrs by LC-MS/MS analysis; format: ADME, organism-based, Canis lupus familiaris; details: in vivo
[8] = Apparent permeability across apical to basolateral side in MDCK cells by transwell assay; format: ADME, cell-based, Canis lupus familiaris; details: dog
[9] = Plasma protein binding in Sprague-Dawley rat assessed as unbound fraction at 5 uM after 6 hrs by LC-MS/MS analysis based equilibrium dialysis method; format: ADME, cell-free
[10] = Volume of distribution at steady state in cynomolgus monkey at 2 mg/kg, po or 1 mg/kg, iv measured upto 24 hrs by LC-MS/MS analysis; format: ADME, organism-based, Macaca fascicularis; details: in vivo
[11] = system: Mus musculus; experiment: Antinociceptive activity in po dosed FVB hNav1.7 transgenic mouse model of inherited erythromelalgia harboring I848T mutation assessed as reduction in number of nociceptive aconitine injected after compound administration; format: functional, organism-based; details: for EC50: Mus musculus; for fEC50: route po
[12] = Oral bioavailability in Beagle dog at 1 mg/kg measured upto 24 hrs by LC-MS/MS analysis; format: ADME, organism-based, Canis lupus familiaris; details: in vivo
[13] = biological target: Sodium channel protein type 4 subunit alpha (Homo sapiens, UniProt P35499); experiment: Inhibition of full length human Nav1.4 expressed in HEK cells by whole cell voltage clamp analysis; format: cell-based
[14] = Oral bioavailability in cynomolgus monkey at 2 mg/kg measured upto 24 hrs by LC-MS/MS analysis; format: ADME, organism-based, Macaca fascicularis; details: in vivo
[15] = Plasma protein binding in cynomolgus monkey assessed as unbound fraction at 5 uM after 6 hrs by LC-MS/MS analysis based equilibrium dialysis method; format: ADME, cell-free, Macaca fascicularis
[16] = Half life in Sprague-Dawley rat at 5 mg/kg, po or 1 mg/kg, iv measured upto 8 hrs by LC-MS/MS analysis; format: ADME, organism-based; details: in vivo
[17] = Kinetic solubility of compound in PBS at pH 7.4; format: physicochemical; details: read-out: Kinetic_solubility
[18] = Half life in Beagle dog at 1 mg/kg, po or 0.5 mg/kg, iv measured upto 24 hrs by LC-MS/MS analysis; format: ADME, organism-based, Canis lupus familiaris; details: in vivo
[19] = biological target: Sodium channel protein type 2 subunit alpha (Homo sapiens, UniProt Q99250); experiment: Inhibition of full length human Nav1.2 expressed in HEK cells by whole cell voltage clamp analysis; format: cell-based
[20] = Plasma protein binding in Beagle dog assessed as unbound fraction at 5 uM after 6 hrs by LC-MS/MS analysis based equilibrium dialysis method; format: ADME, cell-free, Canis lupus familiaris
[21] = Plasma protein binding in human assessed as unbound fraction at 5 uM after 6 hrs by LC-MS/MS analysis based equilibrium dialysis method; format: ADME, cell-free
[22] = Oral bioavailability in Sprague-Dawley rat at 5 mg/kg measured upto 8 hrs by LC-MS/MS analysis; format: ADME, organism-based; details: in vivo
[23] = Volume of distribution at steady state in Sprague-Dawley rat at 5 mg/kg, po or 1 mg/kg, iv measured upto 8 hrs by LC-MS/MS analysis; format: ADME, organism-based; details: in vivo
[24] = biological target: Cytochrome P450 3A4 (Homo sapiens, UniProt P08684); experiment: Inhibition of CYP3A4 (unknown origin); format: ADME
[25] = biological target: Sodium channel protein type 1 subunit alpha (Homo sapiens, UniProt P35498); experiment: Inhibition of full length human Nav1.1 expressed in HEK cells by whole cell voltage clamp analysis; format: cell-based
[26] = biological target: Sodium channel protein type 8 subunit alpha (Homo sapiens, UniProt Q9UQD0); experiment: Inhibition of human Nav1.6 expressed in CHO cells by whole cell voltage clamp analysis; format: cell-based

Sodium channel protein type 5 subunit alpha, sequence (Q14524 whole entry): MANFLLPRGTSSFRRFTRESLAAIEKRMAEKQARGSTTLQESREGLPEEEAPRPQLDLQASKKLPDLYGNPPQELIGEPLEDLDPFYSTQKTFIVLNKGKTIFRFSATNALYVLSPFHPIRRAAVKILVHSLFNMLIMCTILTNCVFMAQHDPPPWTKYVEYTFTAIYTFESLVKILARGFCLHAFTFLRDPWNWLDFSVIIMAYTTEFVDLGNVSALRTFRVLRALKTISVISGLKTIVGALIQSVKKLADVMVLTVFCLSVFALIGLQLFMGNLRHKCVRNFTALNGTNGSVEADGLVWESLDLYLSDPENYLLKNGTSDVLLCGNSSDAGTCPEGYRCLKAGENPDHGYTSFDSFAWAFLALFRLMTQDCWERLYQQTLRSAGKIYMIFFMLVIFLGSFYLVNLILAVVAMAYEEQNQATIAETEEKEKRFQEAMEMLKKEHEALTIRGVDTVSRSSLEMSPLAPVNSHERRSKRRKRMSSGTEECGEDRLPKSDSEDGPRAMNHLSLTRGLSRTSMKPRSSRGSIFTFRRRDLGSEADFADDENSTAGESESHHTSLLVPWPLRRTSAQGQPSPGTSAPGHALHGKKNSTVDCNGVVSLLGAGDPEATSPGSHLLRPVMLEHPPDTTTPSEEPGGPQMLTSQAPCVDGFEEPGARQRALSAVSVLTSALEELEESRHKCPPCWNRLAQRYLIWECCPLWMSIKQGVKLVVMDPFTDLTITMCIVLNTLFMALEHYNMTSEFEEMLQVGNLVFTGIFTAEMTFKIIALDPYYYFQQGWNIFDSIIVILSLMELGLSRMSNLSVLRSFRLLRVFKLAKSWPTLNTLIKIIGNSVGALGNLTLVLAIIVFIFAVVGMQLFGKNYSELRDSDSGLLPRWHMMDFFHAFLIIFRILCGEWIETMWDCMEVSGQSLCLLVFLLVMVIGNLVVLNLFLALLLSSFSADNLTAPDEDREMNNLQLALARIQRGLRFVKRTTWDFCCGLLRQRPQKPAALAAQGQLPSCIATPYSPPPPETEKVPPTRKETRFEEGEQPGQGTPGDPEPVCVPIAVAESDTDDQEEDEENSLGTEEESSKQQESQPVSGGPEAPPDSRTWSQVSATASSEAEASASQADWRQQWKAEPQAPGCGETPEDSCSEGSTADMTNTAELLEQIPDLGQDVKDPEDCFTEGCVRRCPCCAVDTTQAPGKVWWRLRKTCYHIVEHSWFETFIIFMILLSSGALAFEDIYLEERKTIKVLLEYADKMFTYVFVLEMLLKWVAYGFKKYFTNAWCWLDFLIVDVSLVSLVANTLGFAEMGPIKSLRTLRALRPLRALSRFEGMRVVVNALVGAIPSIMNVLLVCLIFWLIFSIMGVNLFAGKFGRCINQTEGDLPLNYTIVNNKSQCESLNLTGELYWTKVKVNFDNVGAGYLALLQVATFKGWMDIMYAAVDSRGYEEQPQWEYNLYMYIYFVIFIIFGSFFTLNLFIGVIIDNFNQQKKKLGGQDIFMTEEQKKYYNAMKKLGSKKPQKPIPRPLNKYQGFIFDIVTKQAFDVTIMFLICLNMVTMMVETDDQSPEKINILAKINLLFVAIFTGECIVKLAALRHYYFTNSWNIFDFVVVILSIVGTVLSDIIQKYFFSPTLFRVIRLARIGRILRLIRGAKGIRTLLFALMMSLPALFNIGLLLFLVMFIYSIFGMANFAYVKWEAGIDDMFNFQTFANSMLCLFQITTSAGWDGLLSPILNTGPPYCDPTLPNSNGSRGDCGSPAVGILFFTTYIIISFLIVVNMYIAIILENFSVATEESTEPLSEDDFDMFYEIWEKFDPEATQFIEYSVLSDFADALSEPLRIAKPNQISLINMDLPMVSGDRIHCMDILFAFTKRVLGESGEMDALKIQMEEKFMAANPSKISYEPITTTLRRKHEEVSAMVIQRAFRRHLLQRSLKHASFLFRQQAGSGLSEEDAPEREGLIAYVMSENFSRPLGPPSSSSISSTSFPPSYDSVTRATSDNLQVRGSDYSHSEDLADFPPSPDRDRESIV
Sodium channel protein type 2 subunit alpha, sequence (Q99250 whole entry): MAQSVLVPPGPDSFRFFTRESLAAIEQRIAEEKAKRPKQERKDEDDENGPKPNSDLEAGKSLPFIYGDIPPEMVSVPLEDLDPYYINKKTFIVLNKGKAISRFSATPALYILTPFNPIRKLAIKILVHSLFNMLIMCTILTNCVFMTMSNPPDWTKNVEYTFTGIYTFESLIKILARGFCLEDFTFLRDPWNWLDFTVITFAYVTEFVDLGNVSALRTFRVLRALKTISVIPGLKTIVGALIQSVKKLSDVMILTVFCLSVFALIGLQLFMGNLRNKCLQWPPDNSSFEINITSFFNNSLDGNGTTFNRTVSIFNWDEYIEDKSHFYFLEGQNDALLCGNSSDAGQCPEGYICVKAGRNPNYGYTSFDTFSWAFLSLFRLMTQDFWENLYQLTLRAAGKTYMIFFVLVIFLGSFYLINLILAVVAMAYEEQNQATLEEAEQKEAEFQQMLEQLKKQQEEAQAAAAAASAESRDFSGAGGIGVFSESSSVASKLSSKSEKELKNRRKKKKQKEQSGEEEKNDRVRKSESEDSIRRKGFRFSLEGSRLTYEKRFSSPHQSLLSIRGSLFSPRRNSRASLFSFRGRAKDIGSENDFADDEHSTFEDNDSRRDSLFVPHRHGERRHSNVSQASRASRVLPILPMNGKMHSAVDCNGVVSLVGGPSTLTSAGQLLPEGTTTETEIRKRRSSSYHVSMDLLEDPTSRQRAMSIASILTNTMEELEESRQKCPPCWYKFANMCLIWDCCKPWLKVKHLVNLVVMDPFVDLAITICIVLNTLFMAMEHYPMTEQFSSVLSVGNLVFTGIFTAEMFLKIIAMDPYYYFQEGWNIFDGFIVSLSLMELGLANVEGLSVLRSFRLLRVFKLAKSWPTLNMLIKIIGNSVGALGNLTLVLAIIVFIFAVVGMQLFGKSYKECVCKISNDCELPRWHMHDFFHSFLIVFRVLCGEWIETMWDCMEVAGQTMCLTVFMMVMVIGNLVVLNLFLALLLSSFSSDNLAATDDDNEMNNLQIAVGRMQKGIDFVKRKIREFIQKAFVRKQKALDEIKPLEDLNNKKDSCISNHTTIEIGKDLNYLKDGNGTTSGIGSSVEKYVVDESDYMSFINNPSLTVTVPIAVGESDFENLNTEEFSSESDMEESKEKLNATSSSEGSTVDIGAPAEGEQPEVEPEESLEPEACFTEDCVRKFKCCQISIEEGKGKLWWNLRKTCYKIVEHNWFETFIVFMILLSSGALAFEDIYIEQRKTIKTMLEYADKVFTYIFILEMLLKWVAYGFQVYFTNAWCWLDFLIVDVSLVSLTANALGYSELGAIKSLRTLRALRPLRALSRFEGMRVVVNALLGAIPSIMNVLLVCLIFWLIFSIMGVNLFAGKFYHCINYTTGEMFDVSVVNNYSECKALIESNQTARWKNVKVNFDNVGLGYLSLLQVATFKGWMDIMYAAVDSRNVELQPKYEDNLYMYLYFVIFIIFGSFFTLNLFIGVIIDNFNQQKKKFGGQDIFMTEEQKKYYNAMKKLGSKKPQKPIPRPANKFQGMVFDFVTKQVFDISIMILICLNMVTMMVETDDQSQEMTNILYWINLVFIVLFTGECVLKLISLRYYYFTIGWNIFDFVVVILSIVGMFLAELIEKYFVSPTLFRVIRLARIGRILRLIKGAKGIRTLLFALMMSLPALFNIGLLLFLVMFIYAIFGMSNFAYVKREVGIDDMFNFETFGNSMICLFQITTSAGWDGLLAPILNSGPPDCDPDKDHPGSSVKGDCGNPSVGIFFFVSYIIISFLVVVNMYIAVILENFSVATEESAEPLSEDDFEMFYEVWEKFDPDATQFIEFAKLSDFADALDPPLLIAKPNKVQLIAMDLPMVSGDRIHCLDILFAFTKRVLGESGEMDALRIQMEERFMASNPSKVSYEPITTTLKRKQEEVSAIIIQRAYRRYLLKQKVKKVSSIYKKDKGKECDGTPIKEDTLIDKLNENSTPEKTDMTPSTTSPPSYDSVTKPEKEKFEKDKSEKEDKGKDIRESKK
Cytochrome P450 3A4, sequence (P08684 whole entry): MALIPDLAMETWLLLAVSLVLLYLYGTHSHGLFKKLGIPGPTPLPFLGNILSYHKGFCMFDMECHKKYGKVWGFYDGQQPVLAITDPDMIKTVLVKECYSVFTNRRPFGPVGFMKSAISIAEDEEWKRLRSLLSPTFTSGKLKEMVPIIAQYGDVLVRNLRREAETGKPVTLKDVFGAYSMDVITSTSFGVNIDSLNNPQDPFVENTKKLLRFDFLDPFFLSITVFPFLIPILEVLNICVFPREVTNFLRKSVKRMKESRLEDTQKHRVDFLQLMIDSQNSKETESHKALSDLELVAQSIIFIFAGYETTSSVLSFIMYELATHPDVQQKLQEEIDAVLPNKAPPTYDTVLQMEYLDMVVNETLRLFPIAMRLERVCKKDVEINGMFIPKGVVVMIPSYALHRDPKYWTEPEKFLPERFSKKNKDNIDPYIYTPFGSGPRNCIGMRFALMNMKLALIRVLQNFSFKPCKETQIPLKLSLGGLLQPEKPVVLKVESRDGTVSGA

## O=C(NS(=O)(=O)C1COC1)c1cc(C2CC2)c(OCC23CC4CC(CC(C4)C2)C3)cc1F
[1]
  IC50: 0.75 µM
[2]
  Ratio IC50: 20
[3]
  logD: 3.4
[4]
  CLint scaled at 1 µM: 6.7 mL/min/kg
[5]
  CLint scaled at 1 µM: 16 mL/min/kg

## CS(=O)(=O)NC(=O)c1cc(C2CC2)c(OCC2CCN(C(=O)c3cc(Cl)cc(Cl)c3)CC2)cc1F
[1]
  IC50: 6.4 µM
[2]
  Ratio IC50: 183
[3]
  logD: 0.9
[4]
  CLint scaled at 1 µM: 7.5 mL/min/kg
[5]
  CLint scaled at 1 µM: 8.6 mL/min/kg

## CS(=O)(=O)NC(=O)c1cc(C2CC2)c(OCC2CCN(Cc3ccccc3)CC2)cc1F
[1]
  IC50: > 30 µM
[2]
  Ratio IC50: > 9.1
[3]
  logD: 0.3
[4]
  CLint scaled at 1 µM: 15 mL/min/kg
[5]
  CLint scaled at 1 µM: 4.8 mL/min/kg

## O=C(NS(=O)(=O)N1CCC1)c1cc(C2CC2)c(OCC23CC4CC(CC(C4)C2)C3)cc1F
[6]
  half-life: 1.6 h
[7]
  Vdss: 0.17 L/kg
[8]
  Papp A→B: 4.7 ×10⁻⁶ cm/s
[9]
  Fu: 0.013%
[10]
  Vdss: 0.3 L/kg
[11]
  EC50: 1.7 µM
  fEC50: 0.42 nM
[12]
  bioavailability: 50%
[1]
  IC50: 0.87 µM
[13]
  IC50: 0.0085 µM
[14]
  bioavailability: 30%
[15]
  Fu: 0.025%
[16]
  half-life: 0.95 h
[17]
  solubility kinetic: 5.3 µM (≈ 2.45 µg/mL)
[18]
  half-life: 5.5 h
[19]
  IC50: 0.0189 µM
[3]
  logD: 3.1
[20]
  Fu: 0.005%
[21]
  Fu: 0.025%
[22]
  bioavailability: 34%
[23]
  Vdss: 0.38 L/kg
[24]
  IC50: > 10 µM
[4]
  CLint scaled at 1 µM: 11 mL/min/kg
[5]
  CLint scaled at 1 µM: 10 mL/min/kg

## CC(C)(c1cc(Cl)cc(Cl)c1)N1CCC(COc2cc(F)c(C(=O)NS(C)(=O)=O)cc2C2CC2)CC1
[1]
  IC50: 3.9 µM
[2]
  Ratio IC50: 144
[3]
  logD: 3.9
[4]
  CLint scaled at 1 µM: < 6.2 mL/min/kg
[5]
  CLint scaled at 1 µM: 7.8 mL/min/kg

## C[C@H](c1cc(Cl)cc(Cl)c1)N1CCC(COc2cc(F)c(C(=O)NS(C)(=O)=O)cc2C2CC2)CC1
[3]
  logD: 2.2
[4]
  CLint scaled at 1 µM: 16 mL/min/kg
[5]
  CLint scaled at 1 µM: 17 mL/min/kg

## O=C(NS(=O)(=O)N1CCCC1)c1cc(C2CC2)c(OCC23CC4CC(CC(C4)C2)C3)cc1F
[1]
  IC50: 1.5 µM
[2]
  Ratio IC50: 9
[3]
  logD: 4.4
[4]
  CLint scaled at 1 µM: < 6.2 mL/min/kg
[5]
  CLint scaled at 1 µM: 8.5 mL/min/kg

## CS(=O)(=O)NC(=O)c1cc(C2CC2)c(OCC2CCN(Cc3ccc(OC(F)(F)F)cc3)CC2)cc1F
[1]
  IC50: 17 µM
[2]
  Ratio IC50: 531
[3]
  logD: 1.2
[5]
  CLint scaled at 1 µM: 9.9 mL/min/kg

## O=C(NS(=O)(=O)N1CCOCC1)c1cc(C2CC2)c(OCC23CC4CC(CC(C4)C2)C3)cc1F
[1]
  IC50: 0.11 µM
[2]
  Ratio IC50: 1
[3]
  logD: 3.8
[4]
  CLint scaled at 1 µM: 12 mL/min/kg
[5]
  CLint scaled at 1 µM: 11 mL/min/kg

## CS(=O)(=O)NC(=O)c1cc(C2CC2)c(OCC2CCN(C(c3ccccc3)c3ccccc3)CC2)cc1F
[1]
  IC50: 0.59 µM
[2]
  Ratio IC50: 8.9
[3]
  logD: 2.7
[4]
  CLint scaled at 1 µM: < 6.2 mL/min/kg
[5]
  CLint scaled at 1 µM: 5.5 mL/min/kg

## CS(=O)(=O)NC(=O)c1cc(C2CC2)c(OCC2CN(C(c3ccccc3)c3ccccc3)C2)cc1F
[1]
  IC50: 1.1 µM
[2]
  Ratio IC50: 48
[3]
  logD: 1.8
[4]
  CLint scaled at 1 µM: 15 mL/min/kg
[5]
  CLint scaled at 1 µM: 6.7 mL/min/kg

## O=C(NS(=O)(=O)C1CC1)c1cc(C2CC2)c(OCC23CC4CC(CC(C4)C2)C3)cc1F
[1]
  IC50: 0.26 µM
[2]
  Ratio IC50: 19
[3]
  logD: 3.2
[4]
  CLint scaled at 1 µM: 16 mL/min/kg
[5]
  CLint scaled at 1 µM: 18 mL/min/kg

## CS(=O)(=O)NC(=O)c1cc(C2CC2)c(OCC23CC4CC(CC(C4)C2)C3)cc1F
[1]
  IC50: 1.1 µM
[3]
  logD: 3.3
[4]
  CLint scaled at 1 µM: 17 mL/min/kg
[5]
  CLint scaled at 1 µM: 19 mL/min/kg

## CS(=O)(=O)NC(=O)c1cc(C2CC2)c(OCC2CCN(Cc3ccc(Cl)cc3)CC2)cc1F
[1]
  IC50: 27 µM
[2]
  Ratio IC50: 667
[4]
  CLint scaled at 1 µM: 15 mL/min/kg
[5]
  CLint scaled at 1 µM: 9.9 mL/min/kg

## CS(=O)(=O)NC(=O)c1cc(C2CC2)c(OCC2CN(Cc3ccccc3)C2)cc1F
[1]
  IC50: > 30 µM
[3]
  logD: 0.1

## C[C@@H](c1cc(Cl)cc(Cl)c1)N1CCC(COc2cc(F)c(C(=O)NS(C)(=O)=O)cc2C2CC2)CC1
[6]
  half-life: 4.4 h
[7]
  Vdss: 0.33 L/kg
[8]
  Papp A→B: 11 ×10⁻⁶ cm/s
[25]
  IC50: 0.202 µM
[9]
  Fu: 0.278%
[10]
  Vdss: 0.29 L/kg
[11]
  EC50: 1.1 µM
  fEC50: 3.5 nM
[12]
  bioavailability: 100%
[26]
  IC50: 0.198 µM
[1]
  IC50: 1.5 µM
[14]
  bioavailability: 82%
[15]
  Fu: 0.129%
[16]
  half-life: 5 h
[17]
  solubility kinetic: 52 µM (≈ 28.3 µg/mL)
[18]
  half-life: 46 h
[19]
  IC50: 0.038 µM
[3]
  logD: 2.3
[20]
  Fu: 0.157%
[21]
  Fu: 0.196%
[22]
  bioavailability: 68%
[23]
  Vdss: 0.6 L/kg
[24]
  IC50: > 10 µM
[4]
  CLint scaled at 1 µM: < 6.2 mL/min/kg
[5]
  CLint scaled at 1 µM: 9.6 mL/min/kg

## CS(=O)(=O)NC(=O)c1cc(C2CC2)c(OCC2CCN(Cc3cc(Cl)cc(Cl)c3)CC2)cc1F
[1]
  IC50: 7 µM
[2]
  Ratio IC50: 58
[3]
  logD: 2
[4]
  CLint scaled at 1 µM: 15 mL/min/kg
[5]
  CLint scaled at 1 µM: 9.7 mL/min/kg
